Here are results for 1 compound from US7408039B2, “Kits for treatment of hematologic disorders” (The General Hospital Corporation, priority 1997, dated 2008).

In series [1] the test system is refractory non-Hodgkin's lymphoma. The settings on record: five patients; Cy 50 mg/kg daily x4.
From the text: Median patient age was 30 (range 20-45) years. All patients had disease progression during salvage chemotherapy or radiation therapy.
For series [2] the following is noted: cited from earlier work.

As to `O=P1(N(CCCl)CCCl)NCCCO1` (centres unmarked) [cyclophosphamide], the “patients with reversible Cy cardiotoxicity” value in series [1] was 1 n. Also, the post-chemotherapy hematopoietic recovery result in series [2] (200 mg/kg, expected, following drug administration) was “approximately 2 weeks”. The “patients developing diffuse maculopapular rash” value in series [2] (24-72 hours following cyclophosphamide) is 10-20%. Also, the “patients with some hematuria” value in series [2] (at this dose level (50 mg/kg x 4)) is “Approximately 50%”. The “incidence of hemorrhagic cystitis” value in series [2] (cyclophosphamide 50 mg/kg on days -6 to -3) is 20%. Also, the myeloablation entry in series [2] (dose of 200 mg/kg) was “not myeloablative”. In addition, the “time for rash to resolve” value in series [2] (in vivo) was 24 to 48 h. In series [2] (total dose (7.6 grams/m^2)), the “total dose at which fatal cardiac failure due to hemorrhagic necrosis can occur” value is recorded as at least 200 mg/kg.
